Data published in US20230167073A1 (Teijin Pharma Limited, priority 2020, published 2023).

Biological target: T1, Human TRPC6 (Homo sapiens, UniProt Q9Y210)
T1 construct: expressed in transfected cells
T1 sequence (Q9Y210 1-931): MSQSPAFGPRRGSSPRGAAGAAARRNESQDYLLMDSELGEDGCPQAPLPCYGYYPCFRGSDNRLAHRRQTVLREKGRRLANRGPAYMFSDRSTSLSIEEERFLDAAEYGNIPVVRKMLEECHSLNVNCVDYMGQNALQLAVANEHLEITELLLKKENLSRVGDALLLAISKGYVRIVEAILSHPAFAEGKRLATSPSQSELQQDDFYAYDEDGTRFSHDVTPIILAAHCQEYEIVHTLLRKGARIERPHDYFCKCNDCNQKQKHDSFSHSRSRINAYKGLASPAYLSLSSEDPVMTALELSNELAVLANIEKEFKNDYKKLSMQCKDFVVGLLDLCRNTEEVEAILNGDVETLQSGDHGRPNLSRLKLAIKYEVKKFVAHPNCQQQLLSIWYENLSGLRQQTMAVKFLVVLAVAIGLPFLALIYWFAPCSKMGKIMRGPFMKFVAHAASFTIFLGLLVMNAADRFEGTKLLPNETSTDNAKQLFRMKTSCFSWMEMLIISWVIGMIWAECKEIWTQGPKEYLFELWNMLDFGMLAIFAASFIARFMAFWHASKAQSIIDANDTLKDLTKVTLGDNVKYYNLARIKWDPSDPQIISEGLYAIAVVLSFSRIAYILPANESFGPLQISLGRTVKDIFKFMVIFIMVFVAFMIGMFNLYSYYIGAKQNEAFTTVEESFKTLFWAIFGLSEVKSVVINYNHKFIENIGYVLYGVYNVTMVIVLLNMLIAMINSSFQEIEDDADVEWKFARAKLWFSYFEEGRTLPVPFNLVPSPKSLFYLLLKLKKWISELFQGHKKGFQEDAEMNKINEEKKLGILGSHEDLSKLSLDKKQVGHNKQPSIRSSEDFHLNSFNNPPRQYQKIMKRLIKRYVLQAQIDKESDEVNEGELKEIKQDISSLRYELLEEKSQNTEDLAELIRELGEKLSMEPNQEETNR
Assay: Evaluation of TRPC6 channel inhibitory activity (1), FLIPR Calcium 5 Assay Kit, OAG stimulation (Compound Nos. 1-1293)
Type: cell-based
Conditions: Human TRPC6 stably-expressing cells, OAG 30 μM, FLIPR Calcium 5 Assay Kit; read-out: Inhibitory activity (pIC50 class) (converted)
Outline: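 TRPC6 (human) stable cells, 24 h culture; Ca5 no-wash dye + probenecid 30 min; cpd 20 min; OAG 30 μM final; ΔF (pre-cpd min to post-OAG max); 0%/100% = no cpd / no cpd + no OAG; 4PL → pIC50, binned +/++/+++.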

IC50 | Structure (SMILES)
< 10 nM | CCN(CC)c1cc(Cc2cc(C#N)ccc2-c2ncc(CCN)cn2)n(C)n1 [compound 1207, 4-[5-(2-aminoethyl)pyrimidin-2-yl]-3-[[5-(diethylamino)-2-methylpyrazol-3-yl]methyl]benzonitrile]
< 10 nM | CCN(CC)c1cc(Cc2cc(C#N)ccc2-c2ccc(CCN)cn2)n(C)n1 [compound 1208, 4-[5-(2-aminoethyl)pyridin-2-yl]-3-[[5-(diethylamino)-2-methylpyrazol-3-yl]methyl]benzonitrile]
10 to 1000 nM | CN(C)c1cc(Cc2cc(C#N)ccc2-c2ncc(CN)cn2)n(C)n1 [compound 1209, 4-[5-(aminomethyl)pyrimidin-2-yl]-3-[[5-(dimethylamino)-2-methylpyrazol-3-yl]methyl]benzonitrile]
< 10 nM | Cn1nc(N2CCCC2)cc1Cc1cc(C#N)ccc1-c1ncc(CN)cn1 [compound 1210, 4-[5-(aminomethyl)pyrimidin-2-yl]-3-[(2-methyl-5-pyrrolidin-1-ylpyrazol-3-yl)methyl]benzonitrile]
< 10 nM | Cn1nc(N2CCCC2)cc1Cc1cc(C#N)ccc1-c1ncc(CCN)cn1 [compound 1211, 4-[5-(2-aminoethyl)pyrimidin-2-yl]-3-[(2-methyl-5-pyrrolidin-1-ylpyrazol-3-yl)methyl]benzonitrile]
< 10 nM | Cn1nc(N2CCCC2)cc1Cc1cc(C#N)ccc1-c1ccc(CCN)cn1 [compound 1212, 4-[5-(2-aminoethyl)pyridin-2-yl]-3-[(2-methyl-5-pyrrolidin-1-ylpyrazol-3-yl)methyl]benzonitrile]
10 to 1000 nM | Cn1nc(N2CCCCC2)cc1Cc1cc(C#N)ccc1-c1ncc(CN)cn1 [compound 1213, 4-[5-(aminomethyl)pyrimidin-2-yl]-3-[(2-methyl-5-piperidin-1-ylpyrazol-3-yl)methyl]benzonitrile]
< 10 nM | Cn1nc(-c2ccccn2)cc1Cc1cc(C#N)ccc1-c1ncc(CCN)cn1 [compound 1214, 4-[5-(2-aminoethyl)pyrimidin-2-yl]-3-[(2-methyl-5-pyridin-2-ylpyrazol-3-yl)methyl]benzonitrile]
< 10 nM | Cn1nc(-c2ccccn2)cc1Cc1cc(C#N)ccc1-c1ccc(CCN)cn1 [compound 1215, 4-[5-(2-aminoethyl)pyridin-2-yl]-3-[(2-methyl-5-pyridin-2-ylpyrazol-3-yl)methyl]benzonitrile]
10 to 1000 nM | CN(C)c1cc(Cc2cc(C#N)ccc2-c2ncc(CCN)cn2)n(C)n1 [compound 1216, 4-[5-(2-aminoethyl)pyrimidin-2-yl]-3-[[5-(dimethylamino)-2-methylpyrazol-3-yl]methyl]benzonitrile]
< 10 nM | CN(C)c1cc(Cc2cc(C#N)ccc2-c2ccc(CCN)cn2)n(C)n1 [compound 1217, 4-[5-(2-aminoethyl)pyridin-2-yl]-3-[[5-(dimethylamino)-2-methylpyrazol-3-yl]methyl]benzonitrile]
< 10 nM | Cn1nc(N2CCCCC2)cc1Cc1cc(C#N)ccc1-c1ncc(CCN)cn1 [compound 1218, 4-[5-(2-aminoethyl)pyrimidin-2-yl]-3-[(2-methyl-5-piperidin-1-ylpyrazol-3-yl)methyl]benzonitrile]
< 10 nM | Cn1nc(N2CCCCC2)cc1Cc1cc(C#N)ccc1-c1ccc(CCN)cn1 [compound 1219, 4-[5-(2-aminoethyl)pyridin-2-yl]-3-[(2-methyl-5-piperidin-1-ylpyrazol-3-yl)methyl]benzonitrile]
> 1000 nM | NCCc1cnc(-c2ccc(F)cc2Cc2cnn(-c3ccccn3)c2)nc1 [compound 1220, 2-[2-[4-fluoro-2-[(1-pyridin-2-ylpyrazol-4-yl)methyl]phenyl]pyrimidin-5-yl]ethanamine]
10 to 1000 nM | CC(C)Cn1cc(Cc2cc(F)ccc2-c2ccc(CCN)cn2)cn1 [compound 1221, 2-[6-[4-fluoro-2-[[1-(2-methylpropyl)pyrazol-4-yl]methyl]phenyl]pyridin-3-yl]ethanamine]
10 to 1000 nM | CC(C)Cn1cc(Cc2cc(F)ccc2-c2ncc(CCN)cn2)cn1 [compound 1222, 2-[2-[4-fluoro-2-[[1-(2-methylpropyl)pyrazol-4-yl]methyl]phenyl]pyrimidin-5-yl]ethanamine]

IC50 | Structure (SMILES)
> 1000 nM | CC(C)Cn1cc(Cc2cc(F)ccc2-c2ncc(CN)cn2)cn1 [compound 1223, [2-[4-fluoro-2-[[1-(2-methylpropyl)pyrazol-4-yl]methyl]phenyl]pyrimidin-5-yl]methanamine]
10 to 1000 nM | Cc1nn(CC(C)C)cc1Cc1cc(F)ccc1-c1ncc(CCN)cn1 [compound 1224, 2-[2-[4-fluoro-2-[[3-methyl-1-(2-methylpropyl)pyrazol-4-yl]methyl]phenyl]pyrimidin-5-yl]ethanamine]
10 to 1000 nM | Cc1nn(CC(C)C)cc1Cc1cc(F)ccc1-c1ncc(CN)cn1 [compound 1225, [2-[4-fluoro-2-[[3-methyl-1-(2-methylpropyl)pyrazol-4-yl]methyl]phenyl]pyrimidin-5-yl]methanamine]
10 to 1000 nM | C=C(c1cc(N2CCOCC2)nc(C)n1)c1cc(C#N)ccc1-c1ccc(CCN)cc1 [compound 1228, 4-[4-(2-aminoethyl)phenyl]-3-[1-(2-methyl-6-morpholin-4-ylpyrimidin-4-yl)ethenyl]benzonitrile]
10 to 1000 nM | N#Cc1ccc(-c2ccc(CCN)cc2)c(C(O)c2cc(-c3ccccc3)no2)c1 (centres unmarked) [compound 1229, 4-[4-(2-aminoethyl)phenyl]-3-[hydroxy-(3-phenyl-1,2-oxazol-5-yl)methyl]benzonitrile]
> 1000 nM | COC(c1cnc(-c2ccccc2)s1)c1cc(C#N)ccc1-c1ccc(CCN)cc1 (centres unmarked) [compound 1230, 4-[4-(2-aminoethyl)phenyl]-3-[methoxy-(2-phenyl-1,3-thiazol-5-yl)methyl]benzonitrile]
10 to 1000 nM | COC(c1cc(-c2ccccc2)no1)c1cc(C#N)ccc1-c1ccc(CCN)cc1 (centres unmarked) [compound 1231, 4-[4-(2-aminoethyl)phenyl]-3-[methoxy-(3-phenyl-1,2-oxazol-5-yl)methyl]benzonitrile]
< 10 nM | Cn1nc(C(C)(C)C)cc1C(O)c1cc(C#N)ccc1-c1ccc(CN)cn1 (centres unmarked) [compound 1233, 4-[5-(aminomethyl)pyridin-2-yl]-3-[(5-tert-butyl-2-methylpyrazol-3-yl)-hydroxymethyl]benzonitrile]
< 10 nM | Cn1nc(C(C)(C)C)cc1C(O)c1cc(C#N)ccc1-c1ncc(CN)cn1 (centres unmarked) [compound 1234, 4-[5-(aminomethyl)pyrimidin-2-yl]-3-[(5-tert-butyl-2-methylpyrazol-3-yl)-hydroxymethyl]benzonitrile]
10 to 1000 nM | Cn1nc(C(C)(C)C)cc1C(O)c1cc(C#N)ccc1-c1ncc(CCN)cn1 (centres unmarked) [compound 1235, 4-[5-(2-aminoethyl)pyrimidin-2-yl]-3-[(5-tert-butyl-2-methylpyrazol-3-yl)-hydroxymethyl]benzonitrile]
10 to 1000 nM | COC(c1cc(C#N)ccc1-c1ncc(CCN)cn1)c1cc(C(C)(C)C)nn1C (centres unmarked) [compound 1236, 4-[5-(2-aminoethyl)pyrimidin-2-yl]-3-[(5-tert-butyl-2-methylpyrazol-3-yl)-methoxymethyl]benzonitrile]
> 1000 nM | N#Cc1ccc(-c2ccc(C(O)CN)cc2)c(Sc2cnnc(N3CCOCC3)c2)c1 (centres unmarked) [compound 1238, 4-[4-(2-amino-1-hydroxyethyl)phenyl]-3-(6-morpholin-4-ylpyridazin-4-yl)sulfanylbenzonitrile]
< 10 nM | N#Cc1ccc(-c2ccc(CCN)cc2)c(Sc2cnnc(N3CCOCC3)c2)c1 [compound 1239, 4-[4-(2-aminoethyl)phenyl]-3-(6-morpholin-4-ylpyridazin-4-yl)sulfanylbenzonitrile]
< 10 nM | N#Cc1ccc(-c2ccc(CCN)cc2)c(Sc2cnnc(N3CCCC3)c2)c1 [compound 1241, 4-[4-(2-aminoethyl)phenyl]-3-(6-pyrrolidin-1-ylpyridazin-4-yl)sulfanylbenzonitrile]
10 to 1000 nM | N#Cc1ccc(-c2ccc(CCN)cn2)c(Sc2cnnc(N3CCOCC3)c2)c1 [compound 1242, 4-[5-(2-aminoethyl)pyridin-2-yl]-3-(6-morpholin-4-ylpyridazin-4-yl)sulfanylbenzonitrile]
< 10 nM | N#Cc1ccc(-c2ccc(CCN)cn2)c(Sc2cnnc(N3CCCCC3)c2)c1 [compound 1243, 4-[5-(2-aminoethyl)pyridin-2-yl]-3-(6-piperidin-1-ylpyridazin-4-yl)sulfanylbenzonitrile]
